Assay results published in paper PMC5534107, “Sensitization of ASIC3 by proteinase-activated receptor 2 signaling contributes to acidosis-induced nociception” (Journal of Neuroinflammation, 2017).

Experiments:
[1] = tested on: ASIC3 currents in CHO cells co-expressing ASIC3 and PAR2; test: Whole-cell patch clamp of proton-gated currents (I pH 6.6) in CHO cells co-expressing ASIC3 and PAR2; type: cell-based, Chinese hamster
Method: ASIC3, ASIC1a, ASIC1b, ASIC2b, and PAR2 complementary DNAs (cDNAs) were used for heterologous expression in CHO cells as described previously (Wang et al., 2013). In brief, CHO cells were cultured at 37 °C in a humidified atmosphere of 5% CO2 and […] and passaged twice a week. Transient transfection of CHO cells was performed using HilyMax liposome transfection reagent (Dojindo Laboratories). CHO cells were maintained in F-12 Nutrient Mixture (added 1.176 g of NaHCO3/L medium) supplemented with 10% fetal bovine serum and 1% gluta-MAXTM-1 (100×; Invitrogen). When ASIC3 and PAR2 cDNAs were co-transfected, the ratio was kept at 1:1. All plasmids used contained, in addition to the desired ASIC3 cDNA, the coding sequence for enhanced green fluorescent protein to aid identification of transfected cells. Electrophysiological measurements were performed 24–48 h after transfection.
Whole-cell patch clamp and voltage clamp recordings were carried out at room temperature (22–25 °C) using a MultiClamp-700B amplifier and Digidata-1440A A/D converter (Axon Instruments, CA, USA). Recording pipettes were pulled using a Sutter P-97 puller (Sutter Instruments, CA, USA). The micropipettes were filled with internal solution containing (mM) KCl 140, MgCl2 2.5, HEPES 10, EGTA 11, and ATP 5; its pH was adjusted to 7.2 with KOH, and osmolarity was adjusted to 310 mOsm/L with sucrose. Cells were bathed in an external solution containing (mM) NaCl 150, KCl 5, CaCl2 2.5, MgCl2 2, HEPES 10, D-glucose 10; its osmolarity was adjusted to 330 mOsm/L with sucrose and its pH to 7.4. The resistance of the recording pipette was in the range of 3–6 MΩ. A small patch of membrane underneath the tip of the pipette was aspirated to form a giga seal, and then, a negative pressure was applied to rupture it, thus establishing a whole-cell configuration. The series resistance was compensated for by 70–80%. The adjustment of capacitance compensation was also done before recording the membrane currents. The membrane voltage was maintained at −60 mV in all voltage clamp experiments unless otherwise specified. Current clamp recordings were obtained by switching to current clamp mode after a stable whole-cell configuration was formed in voltage clamp mode. Only cells with a stable resting membrane potential (more negative than −50 mV) were used in the study. Signals were sampled at 10 to 50 kHz and filtered at 2 to 10 kHz, and the data were stored in compatible PC computer for off-online analysis using the pCLAMP 10 acquisition software (Axon Instruments, CA, USA).
Drugs purchased from Sigma and used in the experiments include hydrochloric acid, 2-furoyl-LIGRLO-NH2 (a PAR2-activating peptide (PAR2-AP)), trypsin, FSLLRY-NH2, APETx2, and capsazepine. Different pH values were configured with hydrochloric acid and external solution. All drugs were dissolved daily in the external solution just before use and held in a linear array of fused silica tubes (o.d./i.d. = 500 μm/200 μm) connected to a series of independent reservoirs. The application pipette tips were positioned ∼30 μm away from the recorded neurons. The application of each drug was driven by gravity and controlled by the corresponding valve, and rapid solution exchange could be achieved within about 100 ms by shifting the tubes horizontally with a PC-controlled micromanipulator. Cells were constantly bathed in normal external solution flowing from one tube connected to a larger reservoir between drug applications. In some experiments where GDP-β-S (Sigma), U-73122(Sigma), and GF109203X (RBI) were applied for intracellular dialysis through recording patch pipettes, they were dissolved in the internal solution before use. To ensure that the cell interior was perfused with the dialysis drug, there was at least a 30-min interval between the establishment of whole-cell access and the current measurement. […]

rat DRG neurons = test: Current clamp of acidosis-evoked action potentials (spikes) in rat DRG neurons; type: cell-based; settings: PAR2-AP 10^−5 M for 1 min; pH 6.6 for 5 s; capsazepine 10 μM; control 3.5 ± 0.6; P < 0.05; n = 9
From the text: The experimental protocol was approved by the animal research ethics committee of Hubei University of Science and Technology (No. 2016–67). All procedures conformed to international guidelines on the ethical use of animals, and every effort was made to minimize the number of animals used and their sufferings. Five- to 6-week-old Sprague–Dawley male rats were anesthetized with 7% chloral hydrate and then decapitated. The DRGs were taken out and transferred immediately into Dulbecco’s modified Eagle’s medium (DMEM, Sigma) at pH 7.4. After the removal of the surrounding connective tissues, the DRGs were minced with fine spring scissors and the ganglion fragments were placed in a flask containing 5 ml of DMEM in which trypsin (type II-S, Sigma) 0.5 mg/ml, collagenase (type I-A, Sigma) 1.0 mg/ml, and DNase (type IV, Sigma) 0.1 mg/ml had been dissolved and incubated at 35 °C in a shaking water bath for 25–30 min. Soybean trypsin inhibitor (type II-S, Sigma) 1.25 mg/ml was then added to stop trypsin digestion. The incubating solution was then replaced by external solution. […]
Drugs purchased from Sigma and used in the experiments include hydrochloric acid, 2-furoyl-LIGRLO-NH2 (a PAR2-activating peptide (PAR2-AP)), trypsin, FSLLRY-NH2, APETx2, and capsazepine. […] The application pipette tips were positioned ∼30 μm away from the recorded neurons. […]

## 2-furoyl-LIGRLO-NH2 [PAR2-AP]
[1]; 10^−4 M, pre-applied 1 min, I pH 6.6, n = 9
  maximum effect (potentiation of ASIC3 currents): 66.6 ± 7.5%
[1]; 10^−5 M for 1 min, n = 10
  increase of peak amplitude of I pH 6.6 after pretreatment with agonist alone: 61.6 ± 4.6%
[1]; I pH 6.6 for 5 s, PAR2-AP 10^−9–10^−4 M pre-applied 1 min, −60 mV, mean ± SEM of 8 to 10 cells, read-out: EC50 of PAR2-AP for potentiation of peak amplitude of proton-gated (ASIC3) currents
  EC50: 290 nM
[1]; PAR2-AP 10^−5 M
  threshold pH value of proton concentration–response curve in presence vs absence of PAR2-AP: no significant difference
[1]; PAR2-AP 10^−5 M pre-applied, proton concentration–response curve, 8 to 10 cells
  increase in the maximal current response to protons: 58.7 ± 3.8%
[1]; PAR2-AP 10^−5 M, 2.36 ± 0.13 in its absence, P > 0.1
  Hill coefficient of proton concentration–response curve in the presence of PAR2-AP: 2.28 ± 0.15
[1]; PAR2-AP 10^−5 M, 3.58 ± 0.29 without
  Hill coefficient of steady-state desensitization with PAR2-AP: 3.65 ± 0.35
[1]; PAR2-AP 10^−5 M, 6.70 ± 0.02 without, P > 0.1
  pH50 (pH for half-maximal current response) with PAR2-AP pretreatment: 6.71 ± 0.04
[1]; PAR2-AP 10^−5 M, conditioning pH 7.6 to 6.6 for 2 min, then pH 6.0, 7.16 ± 0.01 without, P < 0.05, 6 to 8 cells
  pH50 for steady-state desensitization in the presence of PAR2-AP: 7.05 ± 0.02
[1]; potentiation of I pH 6.6, pre-applied 1 min
  Hill coefficient of the concentration–response curve for PAR2-AP: 0.76
Rat DRG neurons
  mean number of spikes induced by acidosis after PAR2-AP pretreatment: 6.3 ± 0.9
